# Measurements from US8865656B2, “Beta-hairpin peptidomimetics having CXCR4 antagonizing activity” (Polyphor AG, priority 2009, dated 2014).
# Where two headings read alike, the source gives them in different places. Starred links: 1 amine or outer side, 2 acyl side, 3 side chain; linkers in the order of their positions; H or OH if unused. Positions of bridges follow the written chain, without caps; N, C: chain ends. Non-standard residues stand in square brackets, D forms with d. Residues, ends and D or L forms follow the SMILES beside them. ξ: configuration not given here. X2 = O=C(CC[C@H](Cc1ccc(O)cc1)N[*:1])[*:2]; Oic = O=C(O)[C@@H]1C[C@@H]2CCCC[C@@H]2N1; β3hS = N[C@@H](CO)CC(=O)O; Dab = NCC[C@H](N)C(=O)O; ξT = CC(O)C(N)C(=O)O
# Key:
# human CXCR4 = target: T1, human CXCR4 (Homo sapiens, UniProt P61073); experiment: Ca2+-assay: CXCR4-antagonizing activity (SDF-1 induced calcium mobilization); type: cell-based; conditions: mouse pre-B cell line 300-19 stably transfected with human CXCR4, read-out: IC50% [nM] ± SD, CXCR4 receptor
# T1 construct: expressed in transfected cells; host or cells: mouse pre-B cell line 300-19
# Text: 2.3. Ca^2+-Assay: CXCR4-Antagonizing Activity of the Peptides
# Increases in intracellular calcium were monitored using a Flexstation 384 (Molecular Devices, Sunnyvale, Calif.) to assay the depsipeptides for CXCR4 antagonism in a mouse pre-B cell line 300-19 stably transfected with human CXCR4 (E. Oberlin, A. Amara, F. Bachelerie, C. Bessia, J.-L. Virelizier, F. Arenzana-Seisdedos, O. Schwartz, J.-M. Heard, I. Clark-Lewis, D. F. Legler, M. Loetscher, M. Baggiolini, B. Moser, Nature 1996, 382, 833-835; M. Loetscher, T. Geiser, T. O'Reilly, R. Zwalen, M. Baggiolini, B. Moser, J. Biol. Chem. 1994, 269, 232-237; M. D'Apuuo, A. Rolink, M. Loetscher, J. A. Hoxie, I. Clark-Lewis, F. Melchors, M. Baggiolini, B. Moser, Eur. J. Immunol. 1997, 27, 1788-1793). The cells were batch loaded with the Calcium 4 Assay kit (Molecular Devices) in assay buffer (Hanks Balanced salt solution [HBSS], 20 mM HEPES, pH 7.4, 0.1% BSA) for 1 h at room temperature and labeled cells were dispensed into black 96 well assays plates (Costar No. 3603). Calcium mobilization induced by stromal-derived factor-1 (SDF-1) was measured in the Flexstation 384 (excitation: 485 nm; emission: 525 nm) for 90 seconds. Antagonist activity of peptides was determined by spiking the cells with compounds prior to SDF-1 addition. Dose response curves (compound concentration versus % maximum response for SDF-1) were determined for each antagonist and IC50 values were calculated by fitting the data to a four parameter logistic equation using SoftmaxPro 4.8 (Molecular Devices).
# [1] = Plasma stability in mouse plasma
# Method: (§1) The stability of the peptides in human and mouse plasma was determined by applying the following method: 315 μL/deep well of freshly thawed human plasma (Basler Blutspende-dienst) and mouse plasma (Harlan Sera-Lab, UK), respectively, were spiked with 35 μL/well of compound in PBS (100 μM, triplicate) and incubated at 37° C. […] Following shaking for 2 min the occurred suspensions were filtrated by vacuum and finally, 100 μL of each filtrate were transferred to a propylene microtiter plate, and analyzed by LC/MS as follows: Column: Waters, XBridge C18, mobile phases: (A) water+0.1% formic acid and (B) acetonitrile/water, 95/5 (v/v)+0.1% formic acid, gradient: 5%-100% (B) in 2 minutes, electrospray ionization, MRM detection (triple quadrupole). The peak areas were determined and triplicate values are averaged. The stability is expressed in percent of the initial value at t=0. (tx/to×100). By using the TREND function of EXCEL (Microsoft Office 2003) T1/2 were determined.
# [2] = Plasma stability in human plasma
# Method: as §1
# in vitro [3] = type: cell-based
# Method: (§2) The cytotoxicity of the depsipeptides to HELA cells (Acc57) and COS-7 cells (CRL-1651) was determined using the MTT reduction assay (T. Mossman, J. Immunol. Meth. 1983, 65, 55-63; M. V. Berridge, A. S. Tan, Arch. Biochem. Biophys. 1993, 303, 474-482). Briefly, the method was as follows: 7000 HELA cells/well and 4500 COS-7 cells/well were seeded and grown in 96-well microtiter plates for 24 h at 37° C. at 5% CO2. Thereafter, time zero (Tz) was determined by MTT reduction (see below). The supernatant of the remaining wells was discarded, and fresh medium and compounds in serial dilutions (12.5, 25 and 50 μM, triplicates) were pipetted into the wells. After incubation of the cells for 48 h at 37° C. at 5% CO2 the supernatant was discarded again and 100 μL MTT reagent (0.5 mg/mL in RPMI1640 and DMEM, respectively)/well was added. Following incubation at 37° C. for 2 h the media were aspirated and the cells were spiked (100 μL isopropanol/well). The absorbance of the solubilized formazan was measured at 595 nm (OD595peptide). For each concentration averages were calculated from triplicates. The percentage of growth was calculated as follows: (OD595peptide-OD595Tz-OD595Empty well)/(OD595Tz-OD595Empty well)×100%. The GI50 (Growth Inhibition) concentrations were calculated for each depsipeptide by using a trend line function for the concentrations (50, 25, 12.5 and 0 μM), the corresponding percentages and the value 50, (=TREND (C50:C0, %50:%0, 50).
# [4] = test system: human red blood cells (hRBC); conditions: red cells of human, 1 h
# Method: The peptides were tested for their hemolytic activity against human red blood cells (hRBC). Fresh hRBC were washed three times with phosphate buffered saline (PBS) and centrifuged for 10 min at 2000×g. Compounds (100 μM) were incubated with 20% hRBC (v/v) for 1 h at 37° C. The final erythrocyte concentration was approximately 0.9×10^9 cells/mL. A value of 0% and 100% cell lyses, respectively, was determined by incubation of hRBC in the presence of PBS alone and 0.1% Triton X-100 in H2O, respectively. The samples were centrifuged, the supernatants were 20-fold diluted in PBS buffer and the optical densities (OD) were measured at 540 nm.
# Percent hemolysis was calculated as follows: (OD540peptide/OD540H2O)×100%.
# in vitro [5] = type: cell-based; remark: listed apart in the source
# Method: as §2
# [6] = mouse plasma, 37° C., sampling up to 240 min
# [7] = human plasma, 37° C., sampling up to 240 min
# T1 sequence (P61073 whole entry): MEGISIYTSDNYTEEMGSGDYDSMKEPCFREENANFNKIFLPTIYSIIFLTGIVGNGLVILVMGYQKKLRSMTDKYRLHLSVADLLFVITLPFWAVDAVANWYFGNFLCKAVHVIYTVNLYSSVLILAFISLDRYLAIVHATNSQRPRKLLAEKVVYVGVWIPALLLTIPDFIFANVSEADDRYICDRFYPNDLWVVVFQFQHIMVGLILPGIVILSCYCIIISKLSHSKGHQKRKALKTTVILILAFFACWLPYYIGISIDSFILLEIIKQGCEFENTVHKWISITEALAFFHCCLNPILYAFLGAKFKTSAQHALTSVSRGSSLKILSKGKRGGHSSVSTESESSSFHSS
Compound,IC50 (human CXCR4) [nM],"Plasmastability mouse pl. T1/2 [1, 6] [h]","Plasmastability human pl. T1/2 [2, 7] [h]",GI50 (in vitro [3]; African green monkey) [µM],Hemolysis at 100 μM [4] [%],GI50 (in vitro [5]; human) [µM],"Plasmastability mouse pl. T1/2 ([1]; mouse, plasma, 10 μM) [h]","Plasmastability human pl. T1/2 ([2]; human, plasma, 10 μM) [h]",GI50 (in vitro [3]) [µM],GI50 (in vitro [5]) [µM]
C[C@@H]1NC(=O)[C@H](Cc2c[nH]cn2)NC(=O)[C@H](Cc2ccc(O)cc2)NC(=O)[C@@H]2CCCN2C(=O)[C@@H](Cc2cn(Cc3ccccc3)cn2)NC(=O)[C@H](CCCCN)NC(=O)[C@H](CCC(N)=O)NC(=O)[C@H](Cc2ccc(O)cc2)NC(=O)[C@@H]2CSSC[C@H](NC1=O)C(=O)N[C@@H](CO)C(=O)N[C@@H](C)C(=O)N1CCC[C@@H]1C(=O)N[C@@H](CCN)C(=O)N[C@@H](CCCNC(=N)N)C(=O)N[C@@H](Cc1ccc(O)cc1)C(=O)N2 [compound 5],0.92 ± 0.2,4,4,> 50,1,> 50,,,,
C[C@@H]1NC(=O)[C@H](Cc2c[nH]cn2)NC(=O)[C@H](Cc2ccc(O)cc2)NC(=O)[C@@H]2CCCN2C(=O)[C@H]2CCCN2C(=O)[C@H](CCCCN)NC(=O)[C@H](CCC(N)=O)NC(=O)[C@H](Cc2ccc(O)cc2)NC(=O)[C@@H]2CSSC[C@H](NC1=O)C(=O)N[C@@H](CO)CC(=O)N[C@@H](C)C(=O)N1CCC[C@@H]1C(=O)N[C@@H](CCN)C(=O)N[C@@H](CCCNC(=N)N)C(=O)N[C@@H](Cc1ccc(O)cc1)C(=O)N2 [compound 20] (cyclo(YHAC[β3hS]A[dP][Dab]RYCYQK[dP]P); disulfide 4-11),2.66 ± 2.2,,,> 50,0.6,> 50,4,4,,
C[C@@H]1NC(=O)[C@H](Cc2c[nH]cn2)NC(=O)[C@H](Cc2ccc(O)cc2)NC(=O)[C@@H]2CCCN2C(=O)CN(CCCCN)C(=O)[C@H](CCCCN)NC(=O)[C@H](CCC(N)=O)NC(=O)[C@H](Cc2ccc(O)cc2)NC(=O)[C@@H]2CSSC[C@H](NC1=O)C(=O)N[C@@H](CO)C(=O)N[C@@H](C)C(=O)N1CCC[C@@H]1C(=O)N[C@@H](CCN)C(=O)N[C@@H](CCCNC(=N)N)C(=O)N[C@@H](Cc1ccc(O)cc1)C(=O)N2 [compound 9],0.09 ± 0.05,4,4,> 50,2.1,> 50,,,,
C[C@@H]1NC(=O)[C@H](Cc2c[nH]cn2)NC(=O)[C@H](Cc2ccc(O)cc2)NC(=O)[C@@H]2C[C@@H]3CCCC[C@@H]3N2C(=O)[C@H]2CCCN2C(=O)[C@H](CCCCN)NC(=O)[C@H](CCC(N)=O)NC(=O)[C@H](Cc2ccc(O)cc2)NC(=O)[C@@H]2CSSC[C@H](NC1=O)C(=O)N[C@@H](CO)C(=O)N[C@@H](C)C(=O)N1CCC[C@@H]1C(=O)N[C@@H](CCN)C(=O)N[C@@H](CCCNC(=N)N)C(=O)N[C@@H](Cc1ccc(O)cc1)C(=O)N2 [compound 16] (cyclo(ACSA[dP][Dab]RYCYQK[dP][Oic]YH); disulfide 2-9),1.46 ± 1.6,4,4,> 50,0.5,> 50,,,,
C[C@@H]1NC(=O)[C@H](Cc2c[nH]cn2)NC(=O)CC[C@H](Cc2ccc(O)cc2)NC(=O)[C@@H]2CCCN2C(=O)[C@H]2CCCN2C(=O)[C@H](CCCCN)NC(=O)[C@H](CCC(N)=O)NC(=O)[C@H](Cc2ccc(O)cc2)NC(=O)[C@@H]2CSSC[C@H](NC1=O)C(=O)N[C@@H](CO)C(=O)N[C@@H](C)C(=O)N1CCC[C@@H]1C(=O)N[C@@H](CCN)C(=O)N[C@@H](CCCNC(=N)N)C(=O)N[C@@H](Cc1ccc(O)cc1)C(=O)N2 [compound 18] (cyclo([X2]HACSA[dP][Dab]RYCYQK[dP]P); disulfide 4-11),0.39 ± 0.5,,,> 50,1.4,> 50,4,4,,
C[C@@H]1NC(=O)[C@H](Cc2c[nH]cn2)NC(=O)[C@H](Cc2ccc(O)cc2)NC(=O)[C@@H]2CCCN2C(=O)[C@@H](CCCCN)N(C)C(=O)[C@H](CCCCN)NC(=O)[C@H](CCC(N)=O)NC(=O)[C@H](Cc2ccc(O)cc2)NC(=O)[C@@H]2CSSC[C@H](NC1=O)C(=O)N[C@@H](CO)C(=O)N[C@@H](C)C(=O)N1CCC[C@@H]1C(=O)N[C@@H](CCN)C(=O)N[C@@H](CCCNC(=N)N)C(=O)N[C@@H](Cc1ccc(O)cc1)C(=O)N2 [compound 8],0.31 ± 0.2,4,4,> 50,0.3,> 50,,,,
CC(O)C1NC(=O)[C@@H]2CSSC[C@H](NC(=O)[C@H](Cc3ccc(O)cc3)NC(=O)[C@H](CCCNC(=N)N)NC(=O)[C@H](CCN)NC(=O)[C@H]3CCCN3C(=O)[C@H](C)NC1=O)C(=O)N[C@@H](Cc1ccc(O)cc1)C(=O)N[C@@H](CCC(N)=O)C(=O)N[C@@H](CCCCN)C(=O)N1CCC[C@@H]1C(=O)N1CCC[C@H]1C(=O)N[C@@H](Cc1ccc(O)cc1)C(=O)N[C@@H](Cc1c[nH]cn1)C(=O)N[C@@H](C)C(=O)N2 (some centres unmarked) [compound 17] (cyclo(YHAC[ξT]A[dP][Dab]RYCYQK[dP]P); disulfide 4-11),,4,4,,1,,,,> 50,> 50
